Measurements: US9718800B2, “Chromenone derivatives” (AstraZeneca AB, priority 2009, dated 2017)

Biological target: PI3Kβ (Homo sapiens (Human), UniProt P42338)
Test: In vitro enzyme inhibition assay (Kinase Glo based enzyme activity assay)
Assay type: biochemical
Conditions: Test (a), Table A
Method: (a) In Vitro Enzyme Inhibition Assay
The inhibition of PI3Kβ, PI3Kα, PI3Kγ and PI3Kδ was evaluated in a Kinase Glo based enzyme activity assay using human recombinant enzymes. The assay measures depletion of ATP after incubation with enzyme, PIP2 and ATP plus compound. ATP at the end of the reaction is detected by addition of Kinase Glo reagent, in this the Ultra Glo™ luciferase (Promega) uses the ATP as a substrate to catalyze the mono-oxygenation of luciferin and the generation of light. A direct relationship exists between the luminescence measured with the Kinase-Glo Plus Reagent and the amount of ATP remaining in a completed kinase reaction and luminescence is inversely related to kinase activity.
Compounds in 100% DMSO were added to assay plates by acoustic dispensing. PI3Kβ was added in a Tris buffer (50 mM Tris pH7.4, 0.05% CHAPS, 2.1 mM DTT, and 10 mM MgCl2) and allowed to preincubate with compound for 20 minutes prior to addition of substrate solution containing PIP2 and ATP. The enzyme reaction was stopped after 80 minutes by the addition of Kinase Glo detection solution. Plates were left for 30 minutes at room temperature then read on a Pherastar Instrument (Luminescence ATP 384 program) setting gain on max well. […]
IC50 values were calculated using a log curve fitting to a non-linear regression package, fitting raw data to inhibitor concentration.

PI3Kβ, sequence (P42338 whole entry): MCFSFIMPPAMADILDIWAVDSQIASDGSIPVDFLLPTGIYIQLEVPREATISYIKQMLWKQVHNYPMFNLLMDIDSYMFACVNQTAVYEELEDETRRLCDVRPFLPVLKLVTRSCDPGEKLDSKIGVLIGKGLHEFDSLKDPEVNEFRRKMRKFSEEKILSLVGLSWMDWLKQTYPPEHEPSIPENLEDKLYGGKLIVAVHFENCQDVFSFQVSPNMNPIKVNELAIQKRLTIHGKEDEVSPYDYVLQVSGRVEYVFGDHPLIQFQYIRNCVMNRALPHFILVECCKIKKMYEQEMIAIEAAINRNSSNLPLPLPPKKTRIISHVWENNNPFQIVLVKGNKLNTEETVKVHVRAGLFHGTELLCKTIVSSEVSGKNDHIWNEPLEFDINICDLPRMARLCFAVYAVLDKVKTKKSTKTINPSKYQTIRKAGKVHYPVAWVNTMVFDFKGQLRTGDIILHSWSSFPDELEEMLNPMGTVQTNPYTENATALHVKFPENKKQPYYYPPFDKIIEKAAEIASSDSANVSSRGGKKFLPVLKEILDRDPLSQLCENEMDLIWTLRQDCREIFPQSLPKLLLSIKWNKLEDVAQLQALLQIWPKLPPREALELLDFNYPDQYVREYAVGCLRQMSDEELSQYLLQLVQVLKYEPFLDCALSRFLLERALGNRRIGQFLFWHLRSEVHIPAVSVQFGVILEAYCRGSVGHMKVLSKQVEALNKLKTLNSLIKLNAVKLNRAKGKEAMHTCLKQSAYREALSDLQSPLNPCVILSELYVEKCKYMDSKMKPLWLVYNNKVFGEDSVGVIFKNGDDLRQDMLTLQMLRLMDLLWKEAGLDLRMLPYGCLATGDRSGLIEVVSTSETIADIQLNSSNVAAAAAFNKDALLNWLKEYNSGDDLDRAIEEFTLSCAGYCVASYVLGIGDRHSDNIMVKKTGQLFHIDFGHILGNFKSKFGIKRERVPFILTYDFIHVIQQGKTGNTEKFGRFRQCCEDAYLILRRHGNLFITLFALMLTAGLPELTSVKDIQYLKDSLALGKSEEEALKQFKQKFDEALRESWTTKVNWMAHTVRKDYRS
PI3Kβ, sequence (P27986 whole entry partner): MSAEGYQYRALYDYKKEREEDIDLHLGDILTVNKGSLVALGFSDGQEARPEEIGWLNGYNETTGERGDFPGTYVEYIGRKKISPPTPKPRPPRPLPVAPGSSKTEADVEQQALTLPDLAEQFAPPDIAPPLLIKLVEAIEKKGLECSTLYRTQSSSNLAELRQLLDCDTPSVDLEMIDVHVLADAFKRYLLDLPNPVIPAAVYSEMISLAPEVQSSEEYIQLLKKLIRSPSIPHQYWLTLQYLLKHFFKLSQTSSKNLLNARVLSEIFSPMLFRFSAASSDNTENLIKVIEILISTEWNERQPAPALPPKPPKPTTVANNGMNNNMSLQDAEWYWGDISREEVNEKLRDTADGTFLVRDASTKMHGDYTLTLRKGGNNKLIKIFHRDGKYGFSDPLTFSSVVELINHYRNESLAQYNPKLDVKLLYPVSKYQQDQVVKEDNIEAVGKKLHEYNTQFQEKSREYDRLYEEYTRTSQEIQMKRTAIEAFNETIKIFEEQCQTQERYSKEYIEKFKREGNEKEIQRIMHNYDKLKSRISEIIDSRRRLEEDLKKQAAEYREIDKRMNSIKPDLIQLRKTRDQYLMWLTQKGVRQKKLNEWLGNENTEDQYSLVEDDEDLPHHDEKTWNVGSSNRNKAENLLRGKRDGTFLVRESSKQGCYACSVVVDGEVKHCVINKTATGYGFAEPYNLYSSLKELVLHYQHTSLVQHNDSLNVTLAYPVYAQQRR

IC50: 6 nM
SMILES: CC(c1cc(C(=O)NCCN(C)C)cc2c(=O)cc(N3CCOCC3)oc12)N(C)c1ccc(F)c(F)c1 (stereo not shown) [Example 3.01, 8-(1-((3,4-difluorophenyl)(methyl)amino)ethyl)-N-(2-(dimethylamino)ethyl)-2-morpholino-4-oxo-4H-chromene-6-carboxamide]
